Patent US20180153995A1, “USE OF ANTIMICROBIAL POLYMERS FOR RE-SENSITIZATION OF MICROORGANISMS UPON EMERGENCE OF RESISTANCE TO ANTI-MICROBIAL AGENTS” (Technion Research & Development Foundation Limited, priority 2008, published 2018)
Values joined by “and” are separate entries in the source; they are usually repeats but may differ in a detail not shown here. Equal values may be shown once. Read-outs that look alike come from different tables or passages of the source.

Assays:
S. aureus 43300 [1] = assay: Antibiotic MIC by microdilution with or without sub-MIC polymer; format: cell-based, Staphylococcus aureus
S. aureus 43300 [2] = assay: as above; format: cell-based, Staphylococcus aureus; remark: listed apart in the source
Method: (§1) MICs were determined by microdilution susceptibility testing in 96-well plates (by Nunc) using inocula of 10^5 bacteria per ml. Cell populations were evaluated by optical density measurements at 620 nm and were calibrated against a set of standards. Hundred (100) μl of a bacterial suspension were added to 100 μl of culture medium (control) or to 100 μl of culture medium containing various polymer concentrations in 2-fold serial dilutions. Inhibition of proliferation was determined by optical density measurements at 620 nm after an incubation period of 24 hours at 37° C.
Table 8 below presents the MIC values of antibiotics in presence or absence of C12(5-ene)KKNC12KNH2 (SEQ ID NO: 2) at sub-MIC levels of the polymer, as measured for the S. aureus strains 43300 (ATCC), 15819 (clinical isolate), 15877 (clinical isolate) and 15852 (clinical isolate). MICs were determined by microdilution susceptibility testing in 96-well plates (Nunc) using inocula of 10^5 bacteria per ml. One hundred (100) μl of a bacterial suspension were added to 100 μl of culture medium (control) or to 100 μl of culture medium containing various antibiotic and C12(5-ene)KKNC12KNH2 (SEQ ID NO: 2) concentrations in 2-fold serial dilutions. Inhibition of proliferation was determined by optical density measurements at 620 nm after an incubation period of 24 hours at 37° C.
(§2) 100 μl of a bacterial suspension were added to 100 μl of culture medium (control) or to 100 μl of culture medium containing various antibiotic and C14(9-ene)KKNC12KNH2 (SEQ ID NO: 5) concentrations in 2-fold serial dilutions. Inhibition of proliferation was determined by optical density measurements at 620 nm after an incubation period of 24 hours at 37° C.

MRSA 15903 = assay: microbe, parasite or virus in culture; format: cell-based, Staphylococcus aureus
Outline: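 Two-agent combinations tested against MRSA 15903; FIC index = A/MICA + B/MICB, using MICs in combination versus alone. Below 0.5 read as clear re-sensitizing, 0.5–4 marginal or null, above 4 antagonism.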

E. coli 14384 = assay: Antibiotic MIC by microdilution with or without sub-MIC polymer; format: cell-based, Escherichia coli
Method: as §1, §2

S. aureus 15819 = assay: as above; format: cell-based, Staphylococcus aureus; details: S. aureus 15819
[3] = +¼ MIC (1.6 μM) C12(5-ene)KKNC12KNH2

Structure (SMILES): Cc1onc(-c2ccccc2)c1C(=O)N[C@@H]1C(=O)N2[C@@H]1SC(C)(C)[C@@H]2C(=O)O [Oxacillin, oxacillin]
- Antibiotic MIC (S. aureus 43300 [1]; [3]): 0.125 µg/mL
- Antibiotic MIC (S. aureus 43300 [1]; +¼ MIC (1.6 μM) C12KKNC12KNH2): 0.5 µg/mL
- Antibiotic MIC (S. aureus 43300 [1]; +¼ MIC (1.6 μM) C16(9-ene)KKNC12KNH2): 0.25 to 0.5 µg/mL
- Antibiotic MIC (S. aureus 43300 [1]; +½ MIC (3.12 μM) C12K(KNC12K)2NH2): 0.25 µg/mL
- Antibiotic MIC (S. aureus 43300 [1]; +½ MIC (3.12 μM) C12KKNC12KNH2): 0.25 µg/mL
- Antibiotic MIC (S. aureus 43300 [1]; +½ MIC (3.12 μM) C16(9-ene)KKNC12KNH2): 0.03 to 0.06 µg/mL
- Antibiotic MIC (S. aureus 43300 [1]; +⅓ MIC (2.1 μM) C12(5-ene)KKNC12KNH2): 0.125 µg/mL
- Antibiotic MIC (S. aureus 43300 [1]; +⅓ MIC (2.1 μM) C12K(KNC12K)2NH2): 0.25 µg/mL
- Antibiotic MIC (S. aureus 43300 [2]; +¼ MIC (1.6 μM) C14(9-ene)KKNC12KNH2): 0.25 to 0.5 µg/mL
- Antibiotic MIC (S. aureus 43300 [2]; +½ MIC (3.12 μM) C12(5-ene)KKNC12KNH2): 0.06 µg/mL
- Antibiotic MIC (S. aureus 43300 [2]; +½ MIC (3.12 μM) C14(9-ene)KKNC12KNH2): 0.25 µg/mL
- Antibiotic MIC (S. aureus 43300 [2]; +⅓ MIC (2.1 μM) C14(9-ene)KKNC12KNH2): 0.25 µg/mL
- Antibiotic MIC (S. aureus 43300 [2]; no polymer (None), Table 8): 0.5 to 1 µg/mL
- Antibiotic MIC (S. aureus 43300 [2]; no polymer (None), Table 9): 0.5 µg/mL
- Antibiotic MIC (S. aureus 43300 [2]; no polymer (None), Table 10): 0.5 to 1 µg/mL
- Antibiotic MIC (S. aureus 43300 [2]; no polymer (None), Table 11): 0.5 µg/mL
- Antibiotic MIC (S. aureus 43300 [2]; no polymer (None), Table 12): 0.5 µg/mL
- MIC (MRSA 15903; MRSA 15903, +¼ polymer MIC (1.6 μM) NC12(KNC12K)2NH2): 256 µg/mL
- MIC (MRSA 15903; MRSA 15903, +½ polymer MIC (3.1 μM) NC12(KNC12K)2NH2): 0.17 µg/mL
- MIC (MRSA 15903; MRSA 15903, +⅓ polymer MIC (2.1 μM) NC12(KNC12K)2NH2): 0.34 µg/mL
- MIC (MRSA 15903; MRSA 15903, antibiotic alone): 256 µg/mL
- concentration up to which oxacillin alone is inactive (MRSA 15903; MRSA 15903, oxacillin alone): > 25 µM
- MIC, ½ + MIC OAK (MRSA 15903; MRSA 15903, with C12K(KNC10K)3NH2 (SEQ ID NO: 10) at ½ of its MIC): 0.5 µg/mL
- MIC, ⅓ + MIC OAK (MRSA 15903; MRSA 15903, with C12K(KNC10K)3NH2 (SEQ ID NO: 10) at ⅓ of its MIC): 16 to 64 µg/mL
- MIC (MRSA 15903; S. aureus CI-15903, +polymer (¼ MIC) C12(5-ene)KKNC12KNH2): 64 µg/mL
- MIC (MRSA 15903; S. aureus CI-15903, +polymer (½ MIC) C12(5-ene)KKNC12KNH2): 0.25 µg/mL
- MIC (MRSA 15903; S. aureus CI-15903, +polymer (⅓ MIC) C12(5-ene)KKNC12KNH2): 4 µg/mL
- MIC (MRSA 15903; S. aureus CI-15903, alone): 256 µg/mL
- MIC (MRSA 15903; Staphylococcus aureus, MRSA, 24 h): 256 µg/mL
- MIC (MRSA 15903; Staphylococcus aureus, MRSA, read-out: MIC of oxacillin): 256 µg/mL
- MIC (MRSA 15903; Staphylococcus aureus, MRSA, read-out: MIC of oxacillin, MRSA 15903, + ½ MIC NC12(KNC12K)2NH2): 0.4 µM
- MIC (MRSA 15903; Staphylococcus aureus, MRSA, read-out: MIC of oxacillin, MRSA 15903, + ½ MIC NC12(KNC12K)2NH2 (text)): 0.17 µg/mL
- MIC (MRSA 15903; Staphylococcus aureus, MRSA, read-out: MIC of oxacillin, MRSA 15903, + ⅓ MIC NC12(KNC12K)2NH2): 0.8 µM
- MIC (MRSA 15903; Staphylococcus aureus, MRSA, read-out: MIC of oxacillin, MRSA 15903, + ⅓ MIC NC12(KNC12K)2NH2 (text)): 0.34 µg/mL
- MIC (MRSA 15903; Staphylococcus aureus, MRSA, read-out: MIC of oxacillin, MRSA 15903, oxacillin alone): 576 µM
- Antibiotic MIC (E. coli 14384): 256 µg/mL and >512 µg/mL
- Antibiotic MIC (E. coli 14384; E. coli 14384, +½ MIC C12K(NC8K)5NH2): 256 to 512 µg/mL
- Antibiotic MIC, None (E. coli 14384; E. coli 14384, antibiotic alone (Table 15)): >512 µg/mL
- Antibiotic MIC (E. coli 14384; E. coli 14384, no polymer (None), Table 9): >512 µg/mL
- Antibiotic MIC (E. coli 14384; E. coli 14384, no polymer (None), Table 14): >512 µg/mL
- Antibiotic MIC in presence of C12K(NC8K)7NH2 (SEQ ID NO: 4), +¼ MIC (E. coli 14384; E. coli 14384, polymer at ¼ of its MIC): >512 µg/mL
- Antibiotic MIC in presence of C12K(NC8K)7NH2 (SEQ ID NO: 4), +½ MIC (E. coli 14384; E. coli 14384, polymer at ½ of its MIC): >512 µg/mL
- Antibiotic MIC in presence of C12K(NC8K)7NH2 (SEQ ID NO: 4), +⅓ MIC (E. coli 14384; E. coli 14384, polymer at ⅓ of its MIC): >512 µg/mL
- Antibiotic MIC (S. aureus 15819; [3]): 2 µg/mL
- Antibiotic MIC (S. aureus 15819; +¼ MIC (1.6 μM) C12K(KNC12K)3NH2): 4 µg/mL
- Antibiotic MIC (S. aureus 15819; +¼ MIC (1.6 μM) C12KKNC12KNH2): 8 µg/mL
